Measurements reported in patent publication US11952586B2, “B-cell cultivation method” (Hoffmann-La Roche Inc., priority 2017, dated 2024).

Tested on: single deposited B-cells
Assay: co-cultivation of single deposited B-cells with EL-4 B5 feeder cells; IgG in supernatant by ELISA
Type: cell-based, rabbit
Details: for frequency per plate of rbIgG-positive wells: 5,000 non-irradiated EL-4 B5 cells per well
Protocol: Single cell sorted B-cells were cultured in 96-well plates with 200 μl/well EL-4 B5 medium with Pansorbin Cells (SAC) (Calbiochem (Merck), Darmstadt, Deutschland), EL-4 B5 cells (0-5×10^4/well) and rabbit thymocyte supernatant or cytokine mix, respectively, for 7 days at 37° C. in an atmosphere of 5% CO2 in the incubator. B-cell culture supernatants were removed for screening and the cells harvested immediately for variable region gene cloning or frozen at −80° C. in 100 μl RLT buffer (Qiagen, Hilden, Germany).
A mixture of 0.5 μg/ml of biotinylated mouse anti-rabbit IgG antibody (Sigma-Aldrich) and 0.35 μg/ml anti-rabbit IgG HRP conjugate (Sigma-Aldrich) was transferred to 384 well streptavidin coated microtiter plates (MicroCoat Biotechnologie GmbH). Dilutions of B-cell supernatants in PBS supplemented with 0.5% BSA and 0.05% Tween®-20 were added and incubated for 90 min at RT. After repeated washing (6×) with PBST (phosphate buffered saline with 0.2% Tween buffer the plates were developed with BM Blue® HRP substrate solution and color formation was measured by absorbance at 370 nm. A commercial rabbit IgG (Sigma-Aldrich) was used as a calibration standard.

[1] = PMA 0.048 ng/ml, 3 Gy, 15k/Well
[2] = PMA 0.048 ng/ml, 4 Gy, 20k/Well
[3] = PMA 0.048 ng/ml, 5 Gy, 20k/Well
[4] = PMA 0.048 ng/ml, 8 Gy, 20k/Well
[5] = PMA 0.048 ng/ml, 50 Gy, 50k/Well
[6] = PMA 0.109 ng/ml, 3 Gy, 15k/Well
[7] = PMA 0.109 ng/ml, 4 Gy, 20k/Well
[8] = PMA 0.109 ng/ml, 5 Gy, 20k/Well
[9] = PMA 0.109 ng/ml, 8 Gy, 20k/Well
[10] = PMA 0.109 ng/ml, 50 Gy, 50k/Well
[11] = PMA 0.25 ng/ml, 50 Gy, 50k/Well

CCCCCCCCCCCCCC(=O)O[C@@H]1[C@@H](C)[C@@]2(O)[C@@H](C=C(CO)C[C@]3(O)C(=O)C(C)=C[C@@H]23)[C@@H]2C(C)(C)[C@]12OC(C)=O [PMA, phorbol-12-myristate-13-acetate]
influence of PMA concentration on frequency of IgG positive wells or productivity (4 Gy irradiated EL-4 B5 cells, 0.015 ng/ml to 1.3 ng/ml PMA): no influence | effect of the addition of PMA on frequency and productivity (50 Gy irradiated EL-4 B5 cells): concentration dependent effect | Average IgG Productivity of all IgG+ wells [1]: 1.405 µg/mL | IgG+ Frequency [1]: 48.8 % total wells | Average IgG Productivity of all IgG+ wells [2]: 5.465 µg/mL | IgG+ Frequency [2]: 73.8 % total wells | Average IgG Productivity of all IgG+ wells [3]: 5.769 µg/mL | IgG+ Frequency [3]: 71.4 % total wells | Average IgG Productivity of all IgG+ wells [4]: 5.739 µg/mL | IgG+ Frequency [4]: 84.5 % total wells | Average IgG Productivity of all IgG+ wells [5]: 2.821 µg/mL | IgG+ Frequency [5]: 14.3 % total wells | frequency per plate of rbIgG-positive wells (PMA 0.08 ng/ml, 0.031x CM): 39.3 % total | frequency per plate of rbIgG-positive wells (PMA 0.08 ng/ml, 0.1x CM): 44.0 % total | frequency per plate of rbIgG-positive wells (PMA 0.08 ng/ml, 0.31x CM): 51.2 % total | frequency per plate of rbIgG-positive wells (PMA 0.08 ng/ml, 1x CM): 65.5 % total | frequency per plate of rbIgG-positive wells (PMA 0.08 ng/ml, 2x CM): 65.5 % total | Average IgG Productivity of all IgG+ wells [6]: 2.932 µg/mL | IgG+ Frequency [6]: 47.6 % total wells | Average IgG Productivity of all IgG+ wells [7]: 5.772 µg/mL | IgG+ Frequency [7]: 76.2 % total wells | Average IgG Productivity of all IgG+ wells [8]: 5.335 µg/mL | IgG+ Frequency [8]: 83.3 % total wells | Average IgG Productivity of all IgG+ wells [9]: 5.614 µg/mL | IgG+ Frequency [9]: 77.4 % total wells | Average IgG Productivity of all IgG+ wells [10]: 1.942 µg/mL | IgG+ Frequency [10]: 16.7 % total wells | frequency per plate of rbIgG-positive wells (PMA 0.14 ng/ml, 0.031x CM): 35.7 % total | frequency per plate of rbIgG-positive wells (PMA 0.14 ng/ml, 0.1x CM): 52.4 % total | frequency per plate of rbIgG-positive wells (PMA 0.14 ng/ml, 0.31x CM): 54.8 % total | frequency per plate of rbIgG-positive wells (PMA 0.14 ng/ml, 1x CM): 69.0 % total | frequency per plate of rbIgG-positive wells (PMA 0.14 ng/ml, 2x CM): 54.8 % total | frequency per plate of rbIgG-positive wells (PMA 0.25 ng/ml, 0.031x CM): 53.6 % total | frequency per plate of rbIgG-positive wells (PMA 0.25 ng/ml, 0.1x CM): 54.8 % total | frequency per plate of rbIgG-positive wells (PMA 0.25 ng/ml, 0.31x CM): 73.8 % total | frequency per plate of rbIgG-positive wells (PMA 0.25 ng/ml, 1x CM): 65.5 % total | frequency per plate of rbIgG-positive wells (PMA 0.25 ng/ml, 2x CM): 48.8 % total | Average IgG Productivity of all IgG+ wells (PMA 0.25 ng/ml, 3 Gy, 15k/Well): 3.094 µg/mL | IgG+ Frequency (PMA 0.25 ng/ml, 3 Gy, 15k/Well): 47.6 % total wells | Average IgG Productivity of all IgG+ wells (PMA 0.25 ng/ml, 4 Gy, 20k/Well): 4.61 µg/mL | IgG+ Frequency (PMA 0.25 ng/ml, 4 Gy, 20k/Well): 75 % total wells | Average IgG Productivity of all IgG+ wells (PMA 0.25 ng/ml, 5 Gy, 20k/Well): 5.313 µg/mL | IgG+ Frequency (PMA 0.25 ng/ml, 5 Gy, 20k/Well): 84.5 % total wells | Average IgG Productivity of all IgG+ wells (PMA 0.25 ng/ml, 8 Gy, 20k/Well): 5.945 µg/mL | IgG+ Frequency (PMA 0.25 ng/ml, 8 Gy, 20k/Well): 88.1 % total wells | Average IgG Productivity of all IgG+ wells [11]: 1.893 µg/mL | IgG+ Frequency [11]: 20.2 % total wells | frequency per plate of rbIgG-positive wells (PMA 0.43 ng/ml, 0.031x CM): 67.9 % total | frequency per plate of rbIgG-positive wells (PMA 0.43 ng/ml, 0.1x CM): 72.6 % total | frequency per plate of rbIgG-positive wells (PMA 0.43 ng/ml, 0.31x CM): 71.4 % total | frequency per plate of rbIgG-positive wells (PMA 0.43 ng/ml, 1x CM): 50.0 % total | frequency per plate of rbIgG-positive wells (PMA 0.43 ng/ml, 2x CM): 45.2 % total | Average IgG Productivity of all IgG+ wells (PMA 0.57 ng/ml, 3 Gy, 15k/Well): 6.067 µg/mL
